Experiment [1] relates to human neutrophil suspension. The experiment in a line: Neutrophil adhesion test with LPS-activated human neutrophils (96-well plate, crystal violet, OD620). Type of experiment: cell-based. The following applies: human neutrophils activated with E. coli lipopolysaccharide, 1 hour at 37° C.; control = 100%; FIG. 2A / FIG. 2B. As to the method: (§1) Neutrophils were collected from blood. Specifically, neutrophils were isolated from whole blood collected from healthy humans or dogs using Polymorphprep (Cosmo Bio). The separated neutrophil samples were centrifuged at 2000 rpm for about 40 minutes, then the supernatant was removed, and the residue was transferred to RPMI (SIGMA) medium supplemented with 10-mass % fetal bovine serum (Tissue Culture Biologicals, USA) and diluted to obtain a cell count of 4×10^6 cells/ml, preparing human and canine neutrophil suspensions, respectively. […] The neutrophil adhesion rate was determined as follows. The value obtained by quantifying the activated neutrophils adhered to the wells in the control without containing lysozyrne-chitosan complex or decanoic acid was set as 100%, and compared with the value obtained by quantifying the activated neutrophils adhered to the wells in the same way for the test substances in each Example and Comparative Example. Neutrophil Adhesion Rate (%)=[Quantitative Value of Adhesive Activated Neutrophils in Each Example and Comparative Example]/[Quantitative Value of Adhesive Activated Neutrophils in Control]×100 In the present invention, the ability to suppress the neutrophil adhesive reaction was evaluated by the following procedure. […]

In experiment [2] the test system is canine neutrophil suspension. The experiment in a line: Neutrophil adhesion test with LPS-activated canine neutrophils (96-well plate, crystal violet, OD620 and microscopy). Conditions: 0.2 mg/ml lysozyme-chitosan complex and/or 0.4 mg/ml decanoic acid, magnification 40 times, FIG. 3B to 3D. It is filed as cell-based, dogs. As to the method: as §1

Consider `CCCCCCCCCC(=O)O` [decanoic acid], for which, in experiment [1], the “neutrophil adhesion rate (%) as the concentration of test substance increases” value is “did not decrease”. Besides, the “distribution of adherent neutrophils stained with crystal violet (photomicrograph)” value in experiment [2] is on record as “widely distributed”.
